Assay results from patent US20140301961A1, “COMPOUNDS WITH ANTI-AGING ACTIVITIES” (priority 2011, published 2014).
“Also recorded” adds a separate entry of the source.

What was measured:
[1] = system: MMP1; assay: PMA inflammation induced MMP1 production in human dermal fibroblasts; format: cell-based; details: for inhibition of PMA inflammation induced MMP1 production: human dermal fibroblasts, PMA 10 nM, 24 h (FIG. 3); for MMP production: summary of FIGS. 2, 3 and 4 (UV skin explants and PMA dermal fibroblasts)
Description: (§1) MMP-inhibitory activity for compounds of the invention was also assessed on human dermal fibroblasts. Dermal fibroblasts were cultured in Dulbecco's Modified Eagle Medium (DMEM) (Invitrogen) with 10% EBS (ex. Invitrogen) and 1% Pencillin/Streptavidin (ex. Invitrogen). To induce inflammation in the cells, PMA (phorbol myristate acetate) (ex. Sigma) was used at a concentration of 10 nM. […] The cells were stimulated for 24 h and the culture supernatant was collected and stored at −20° C. until further analysis. Fluorokine MultiAnalyte Profiling (xMAP) using the BioPlex (ex. Biorad) dual laser flow-based sorting and detection analyzers manufactured by Luminex corporation (Luminex, Austin, Tex.) was employed to measure levels of MMP in conditioned media samples of stimulated dermal fibroblasts. The technology incorporated polystyrene microspheres dyed internally with differing ratios of two spectrally distinct fluorophores to create a family of different spectrally addressed bead sets. The bead utilized in this study was conjugated with a biotinylated capture antibody specific for a unique MMPs, The assay was performed without antecedent serum depletion. Results were compared with medium from cells treated with vehicle only (DMSO). The assays utilized a 96-well microplate format and were processed according to the manufacturer's protocol, including generation of a standard curve for each target prepared in background assay diluents. Values that fell within the linear range of the calibration assay were accepted. Samples were analyzed using the Bio-Plex suspension array system and Bio-Plex Manager software 4.0 (Bio-Rad Laboratories, Hercules, Calif.). Quantities were determined by comparison to standard curves obtained for the different MMP.

[2] = system: MMP3; assay: PMA inflammation induced MMP3 production in human dermal fibroblasts; format: cell-based; details: PMA 10 nM, 24 h (FIG. 4)
Description: as §1

[3] = system: Fibroblast growth factor (FGF); assay: FGF production in human skin explants; format: cell-based; details: topical (FIG. 13)
Description: Full thickness skin from surgical waste material from breast reductions was collected. Subcutaneous fat was removed with a scalpel. 8 mm punch biopsies was taken from the skin and referred to as skin explants. Thereafter, the explants were put on Millipore cell culture inserts (12 mm in diameter). Inserts containing skin explants were put in 6-well plate (1 insert/well) and 1 mL of supplemented keratinocyte medium (Cascade Biologics) was added to each well to allow survival and nutrition of the explants. […] Supernatants were thereafter collected and analyzed for GM-CSF production.
Human Skin Explants were Obtained and Treated as Described in Example 7.3.
The methodology described in Example 3.1 was adapted in order analyze FGF production in skin explants.

[4] = system: Kallikrein 8; assay: Kallikrein 8 ELISA in human normal keratinocytes; format: cell-based; details: 4 days stimulation (FIG. 14)
Description: (§2) Keratinocytes were cultured in commercially available keratinocyte medium M154 (Cascade Biologics/Invitrogen) # M154500 with a final calcium […]. Supplements were added meeting following final concentrations of growth factors; bovine pituitary extract (BPE), 0.2% v/v·bovine insulin, 5 μg/ml·hydrocortisone, 0.18 μg/ml·bovine transferrin, 5 μg/ml·human epidermal growth factor, 0.2 ng/ml.
Keratinocytes used for Kallikrein 8 experiments were cultured as described in example 2.1. Experiments were performed in monolayers with 80% confluence. The cells were stimulated for 4 days prior to kallikrein 8 analysis with the different actives and then culture supernatant were collected and stored in −20° C. until further analysis. Kallikrein 8 production was analysed in cell culture supernatants from stimulated keratinocytes using a ELISA assay specific for Kallikrein 8 (Uscn Life Science Inc, E90690Hu). Results were compared with cell culture supernatants from DMSO vehicle treated cells. The assays utilized a 96-well microplate format and were processed according to the manufacturer's protocol, including generation of a standard curve prepared in background assay diluents. Absorbance of the assay dye was read at a Synergy HT plate reader. Values that fell within the linear range of the calibration assay were accepted. Quantities were determined by comparison to standard curves obtained for KLK8.

[5] = system: Keratin 1/10; assay: Keratin 1/10 production in human normal keratinocytes; format: cell-based; details: for synthesis of Keratin 1/10: human normal keratinocytes (FIG. 15)
Description: as §2
Medium was changed every other day. Cells were grown to 80% confluence prior stimulation with compounds. Experiments were performed in 24-well plates. The cells were treated with individual compounds of the invention for 6 days. After 3 days the medium was refreshed. A source of calcium ions was used as a positive control. After 6 days tissue culture medium was stored in −20° C. until analysis.
Cells were cultured as described in Example 5.1. and the methodology described in Example 3.1 was adapted in order analyze keratin 1/10 production.

[6] = system: prostaglandin-endoperoxide synthase 1 (PTGS1); assay: Affymetrix gene array on skin explants, PTGS1; format: cell-based, human; details: topical, 24 hours
From the text: (§3) Subcutaneous fat from full thickness skin, obtained from surgical waste material from breast reduction procedures, was removed with a scalpel. Three healthy Caucasian female donors were used for this study. The female donors differed from those of the skin-treatment study outlined previously 8 mm punch biopsies were taken from the skin (and these biopsies are now referred to as skin explants). Skin explants were put on Milipore cell culture inserts (12 mm diameter). Inserts containing skin explants were put in 6-well plates (one insert/well) and 1 mL of supplemented keratinocyte medium (ex Cascade Biologics) was added to each well. A tretinoin-containing cream (Aberela® ex. Janssen): 0.05% tretinoin in the cream, was applied topically to each explant (5 μL/cm^2) using a positive displacement pipette. A placebo cream without tretinoin was used as a control. The skin explants were incubated with tretinoin for 24 hours at 37° C. in 5% CO2-humidified air.
(§4) RNA concentration was measured with ND-1000 spectrophotometer (ex. NanoDrop Technologies) and RNA quality was evaluated using the Agilent 2100 bioanalyzer system (ex. Agilent Technologies). 250 nanograms of total RNA from each skin or skin explant sample was used to prepare biotinylated fragmented cRNA according to the GeneChip® 3′IVT Express Kit Manual (PN702646 Rev 1, ex. Affymetrix Inc.). Affymetrix GeneChip® expression arrays (Human Genome U133 Plus 2.0) were hybridized for 16 hours in a 45° C. incubator, rotated at 60 rpm. According to the GeneChip Expression Wash, Stain and Scan Manual (PN 702731 Rev 2, ex. Affymetrix Inc.) the arrays were washed and stained using the Fluidics Station 450 and scanned using the GeneChip® Scanner 3000 7G.
(§5) Analysis of the gene expression data was carried out in the statistical computing language R (http://www.r-project.org) using packages available from the Bioconductor project (www.bioconductor.org). The raw data was normalized using the robust multi-array average (RMA) method. In order to search for differentially expressed genes between the X samples and the Y samples group an empirical Bayes moderated t-test was then applied using the ‘limma’ package.
(§6) Skin explants were obtained as detailed in Example 3.1.

[7] = system: steroid 5 alpha-reductase 3 (SRD5A3); assay: Affymetrix gene array on skin explants, SRD5A3; format: cell-based, human; details: topical, 24 hours
From the text: as §3, §4, §5, §6

[8] = system: arachidonate 5-lipoxygenase (ALOX5); assay: Affymetrix gene array on skin explants, ALOX5; format: cell-based, human; details: topical, 24 hours
From the text: as §3, §4, §5, §6

Structure (SMILES): C=C1C[C@]23C[C@@]1(O)CC[C@H]2[C@@]12C=C[C@H](O)[C@@](C)(C(=O)O1)[C@@H]2[C@@H]3C(=O)O [Gibberellic acid, (3S,3aS,4S,4aS,7S,9aR,9bR,12S)-7,12-dihydroxy-3-methyl-6-methylene-2-oxoperhydro-4a,7-methano-9b,3-propenoazuleno[1,2-b]furan-4-carboxylic acid]
- inhibition of PMA inflammation induced MMP1 production [1]: inhibition
- MMP production [1]: ability to inhibit MMP production
- inhibition of PMA inflammation induced MMP3 production [2]: inhibition
- FGF production [3]: higher FGF production than retinoic acid; also recorded: Stimulation of FGF production
- synthesis of kallikrein 8 [4]: significant increase in the synthesis of kallikrein 8
- synthesis of Keratin 1/10 ([5]; 1.2 microM): significant increase in the synthesis of Keratin 1/10
- PTGS1 gene expression [6]: −1.11 log 2−ratio
- SRD5A3 gene expression [7]: −0.75 log 2−ratio
- ALOX5 gene expression [8]: −1.01 log 2−ratio

Structure (SMILES): CC(=O)N[C@@H](CC(=O)O)C(=O)O [N-Acetyl aspartic acid, (2S)-2-Acetamidobutanedioic acid]
- inhibition of PMA inflammation induced MMP1 production [1]: inhibition
- MMP production [1]: ability to inhibit MMP production
- inhibition of PMA inflammation induced MMP3 production [2]: inhibition
- FGF production [3]: higher FGF production than retinoic acid; also recorded: Stimulation of FGF production
- synthesis of kallikrein 8 [4]: significant increase in the synthesis of kallikrein 8
- production of Keratin 1/10 ([5]; concentration not given): stimulate production of Keratin 1/10
- PTGS1 gene expression [6]: −0.20 log 2−ratio
- SRD5A3 gene expression [7]: −1.54 log 2−ratio
- ALOX5 gene expression [8]: 0.15 log 2−ratio

Structure (SMILES): O=C1C[C@@H](c2ccc(O)cc2)Oc2cc(O)cc(O)c21 [Naringenin, (S)-2,3-Dihydro-5,7-dihydroxy-2-(4-hydroxyphenyl)-4H-1-benzopyran-4-one]
- inhibition of PMA inflammation induced MMP1 production [1]: inhibition
- MMP production [1]: ability to inhibit MMP production
- inhibition of PMA inflammation induced MMP3 production [2]: inhibition
- FGF production [3]: higher FGF production than retinoic acid
- FGF production ([3]; listed as naringenin): Stimulation of FGF production
- synthesis of kallikrein 8 [4]: significant increase in the synthesis of kallikrein 8
- synthesis of Keratin 1/10 ([5]; 150 microM): significant increase in the synthesis of Keratin 1/10
- PTGS1 gene expression [6]: −3.51 log 2−ratio
- SRD5A3 gene expression [7]: 1.25 log 2−ratio
- ALOX5 gene expression [8]: −0.69 log 2−ratio
